{
  "source": "patent US20250332176A1",
  "about": "“TREATMENT FOR FIBROSIS AND INHIBITION OF FIBROSIS” (GALMED RESEARCH AND DEVELOPMENT LTD, priority 2022, published 2025)",
  "key": {"[1]": {"tested_on": "LX-2 human hepatic stellate cells", "experiment": "Inhibition of collagen synthesis in stellate cells (COL1A1, PPARγ expression, collagen production)", "type": "cell-based", "protocol": "LX2 cells (150.000 cells per well) were plated in DMEM media containing antibiotics, glutamine and bovine fetal serum. After 24 hours incubation, media was changed to 0% serum and incubated for an additional period of 16 hours. Then, Aramchol™ (10 mM) was added and 24 hours later RNA was extracted with Trizol."}, "human NAFLD": {"tested_on": "human NAFLD", "experiment": "3-month phase 2a human NAFLD study", "type": "in vivo"}, "[2]": {"experiment": "Phase 1 single dose plasma exposure in healthy volunteers", "type": "in vivo, human", "details": "for AUC: human, plasma, oral, AUC=AUCinf", "protocol": "(§1) Table 1 summarizes the reported plasma exposure from three studies-single dose Phase I in healthy volunteers (30-900 mg, AUC=AUCinf); Phase II ARAMCHOL™ 003 repeat dose study (AUC on D84 from 100 & 300 mg QD), Phase IIb Cmin on D84 (400 and 600 mg QD).\nBiovailability relative to 30 […] has been calculated as (AUC/Dose)/(AUC/30 mg) and is plotted for this group in FIG. 11."}, "[3]": {"experiment": "Phase 2 ARAMCHOL 003 repeat dose plasma exposure in patients", "type": "in vivo, human", "details": "for AUC/Dose / Relative bioavailability (AUC/Dose normalized to 30 mg HV data) / AUC at 84 day: patients; for AUC/Dose / Relative bioavailability (AUC/Dose normalized to 30 mg HV data): D84; for AUC at 84 day: human, plasma, oral", "protocol": "as §1\nExposure in patients is also sub-proportional from 100 to 300 mg. […] This may be due to the use of a tablet formulation in the patient study versus the powder/suspension in healthy volunteers or may simply reflect a high degree of inter-subject variability (typically exposure CV is >50% within a study group)."}, "[4]": {"tested_on": "LX-2, a human hepatic stellate cell line", "experiment": "Mechanistic study in hepatic stellate cells (qPCR, Western, RNAseq, GSEA)", "type": "cell-based", "details": "Aramchol 10 μM", "protocol": "Serum-starved LX2 cells were treated with Aramchol™ (10 μM) for 24 or 48 hours. Fibrogenic gene expression and SCD-1 protein expression were measured by qPCR and Western, respectively. RNAseq was performed at 24 and 48 h in duplicate. Differential gene expression was assessed with DSeq2, while gene set enrichment analysis (GSEA) and gene ontology (GO) analyses assessed functionality of gene expression changes. Primary hepatocytes from C57BL/6 mice were harvested by perfusion and treated with Aramchol™ ([…]) for 48 hours in culture. PPAR γ mRNA expression was measured by qPCR."}},
  "note": "“And” between values parts separate entries of the source, which are not always exact repeats. Identical values can stand only once. “Also recorded” adds a separate entry of the source.",
  "data": [
    {"smiles": "CCCCCCCCCCCCCCCCCCCC(=O)N[C@H]1CC[C@@]2(C)[C@@H](C1)C[C@@H](O)[C@@H]1[C@@H]2C[C@H](O)[C@]2(C)[C@@H]([C@H](C)CCC(=O)O)CC[C@@H]12", "note": "[Aramchol™, 3β-arachidylamido-7α, 12α-dihydroxy-5β-cholan-24-oic acid]", "values": [
      {"measurement": "COL1A1 expression", "setting": "[1]; Aramchol 10 mM, 24 hours, RNA", "result": "significantly reduced"},
      {"measurement": "PPARγ expression", "setting": "[1]; Aramchol 10 mM, 24 hours, RNA", "result": "up-regulation"},
      {"measurement": "collagen production", "setting": "[1]; relative to a DMSO control", "result": "significantly down regulates"},
      {"measurement": "hepatic fat", "setting": "human NAFLD", "result": "reduced"},
      {"measurement": "exposure (AUC) of single 900 mg dose higher than single 300 mg dose", "setting": "[2]", "result": 1.35, "unit": "fold"},
      {"measurement": "decrease in AUC/Dose across the dose range", "setting": "[2]; 30-900 mg", "result": "four-fold"},
      {"measurement": "AUC", "setting": "[2]; single dose 30 mg", "result": 11900, "unit": "ng·h/mL"},
      {"measurement": "AUC", "setting": "[2]; single dose 100 mg", "result": 25700, "unit": "ng·h/mL"},
      {"measurement": "AUC", "setting": "[2]; single dose 300 mg", "result": 64300, "unit": "ng·h/mL"},
      {"measurement": "AUC", "setting": "[2]; single dose 900 mg", "result": 86900, "unit": "ng·h/mL"},
      {"measurement": "AUC/Dose", "setting": "[2]; single dose 30 mg", "result": "397 ng/mL · h/(mg/kg)"},
      {"measurement": "Relative bioavailability (AUC/Dose normalized to 30 mg HV data)", "setting": "[2]; single dose 30 mg", "result": 1},
      {"measurement": "AUC/Dose", "setting": "[2]; single dose 100 mg", "result": "257 ng/mL · h/(mg/kg)"},
      {"measurement": "Relative bioavailability (AUC/Dose normalized to 30 mg HV data)", "setting": "[2]; single dose 100 mg", "result": 0.65},
      {"measurement": "AUC/Dose", "setting": "[2]; single dose 300 mg", "result": "214 ng/mL · h/(mg/kg)"},
      {"measurement": "Relative bioavailability (AUC/Dose normalized to 30 mg HV data)", "setting": "[2]; single dose 300 mg", "result": "0.53 and 0.54"},
      {"measurement": "AUC/Dose", "setting": "[2]; single dose 900 mg", "result": "97 ng/mL · h/(mg/kg)"},
      {"measurement": "Relative bioavailability (AUC/Dose normalized to 30 mg HV data)", "setting": "[2]; single dose 900 mg", "result": 0.24},
      {"measurement": "AUC/Dose", "setting": "[3]; 100 mg QD repeat dose", "result": "197 ng/mL · h/(mg/kg)"},
      {"measurement": "Relative bioavailability (AUC/Dose normalized to 30 mg HV data)", "setting": "[3]; 100 mg QD repeat dose", "result": 0.50},
      {"measurement": "steady-state AUC in patients lower than AUCinf from a single dose in healthy volunteers", "setting": "[3]; 300 mg", "result": "approximately 2 fold"},
      {"measurement": "AUC/Dose", "setting": "[3]; 300 mg QD repeat dose", "result": "110 ng/mL · h/(mg/kg)"},
      {"measurement": "Relative bioavailability (AUC/Dose normalized to 30 mg HV data)", "setting": "[3]; 300 mg QD repeat dose", "result": 0.28},
      {"measurement": "AUC at 84 day", "setting": "[3]; 100 mg QD repeat dose, AUC on D84", "result": 19700, "unit": "ng·h/mL"},
      {"measurement": "AUC at 84 day", "setting": "[3]; 300 mg QD repeat dose, AUC on D84 (steady-state)", "result": 33000, "unit": "ng·h/mL"},
      {"measurement": "exposure CV within a study group", "setting": "[3]; typically, inter-subject variability", "result": "> 50", "unit": "%"},
      {"measurement": "cholesterol biosynthesis (Gene Set Enrichment Analysis)", "setting": "[4]; 24 or 48 hours", "result": "downregulates"},
      {"measurement": "collagen formation (Gene Set Enrichment Analysis)", "setting": "[4]; 24 or 48 hours", "result": "downregulates"},
      {"measurement": "PPARγ mRNA (RT-PCR)", "setting": "[4]; 24 or 48 hours, serum-starved", "result": "upregulates"},
      {"measurement": "SCD-1 mRNA (RT-PCR)", "setting": "[4]; 24 or 48 hours, serum-starved", "result": "downregulates"},
      {"measurement": "fibrogenic genes (RT-PCR)", "setting": "[4]; 24 or 48 hours, serum-starved", "result": "downregulates"},
      {"measurement": "SCD-1 protein (Western Blot, densitometry)", "setting": "[4]; 24 or 48 hrs", "result": "downregulates"},
      {"measurement": "PPARγ mRNA (RNASeq)", "setting": "[4]; 48 hrs", "result": "upregulation"},
      {"measurement": "cholesterol efflux regulatory protein ABCA1 (RNASeq)", "setting": "[4]; 48 hrs", "result": "upregulated"},
      {"measurement": "fibrogenic genes and SCD-1 mRNA (RNASeq)", "setting": "[4]; 48 hrs", "result": "downregulation; also recorded: downregulates"}
    ]}
  ]
}
